Test results reported in the supplement of paper PMC10307832.

Assays:
Experiment in all cases: relative viability (nuclei count vs DMSO), 5 days (fraction); higher = more cells survive
COR-L 105 = system: COR-L 105
Summary of the method: (§1)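 Relative viability divides the nuclei count in treated wells by that in vehicle wells. Lung cancer cell lines were seeded in 1536-well plates, dosed by pin tool the next day, and fixed and stained after 5 days in one step with final 0.05% Triton X-100, 1% formaldehyde and 1 ug/ml Hoechst. Dosing was a single drug or a fixed anchor-drug dose plus five library-drug doses (not always all listed) in √10 steps, and values are medians of duplicate plates imaged at 4×.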

COR-L23 = system: COR-L23
Summary of the method: as §1

EKVX = system: EKVX
Summary of the method: as §1

HARA = system: HARA
Summary of the method: as §1

HOP-62 = system: HOP-62
Summary of the method: as §1

NCI-H1355 = system: NCI-H1355
Summary of the method: as §1

NCI-H1395 = system: NCI-H1395
Summary of the method: as §1

NCI-H1734 = system: NCI-H1734
Summary of the method: as §1

NCI-H1755 = system: NCI-H1755
Summary of the method: as §1

NCI-H1793 = system: NCI-H1793
Summary of the method: as §1

NCI-H1993 = system: NCI-H1993
Summary of the method: as §1

NCI-H2009 = system: NCI-H2009
Summary of the method: as §1

NCI-H2170 = system: NCI-H2170
Summary of the method: as §1

NCI-H2228 = system: NCI-H2228
Summary of the method: as §1

NCI-H2342 = system: NCI-H2342
Summary of the method: as §1

NCI-H2347 = system: NCI-H2347
Summary of the method: as §1

NCI-H322M = system: NCI-H322M
Summary of the method: as §1

NCI-H358 = system: NCI-H358
Summary of the method: as §1

NCI-H522 = system: NCI-H522
Summary of the method: as §1

NCI-H647 = system: NCI-H647
Summary of the method: as §1

NCI-H838 = system: NCI-H838
Summary of the method: as §1

PC-14 = system: PC-14
Summary of the method: as §1

SK-MES-1 = system: SK-MES-1
Summary of the method: as §1

UMC-11 = system: UMC-11
Summary of the method: as §1

`CC(C)Oc1cc(Nc2nc(N[C@@H](C)c3ccc(F)cn3)ncc2Cl)n[nH]1` [AZ23] + Cc1cc(Nc2cc(N3CCN(C)CC3)nc(Sc3ccc(NC(=O)C4CC4)cc3)n2)n[nH]1 [Tozasertib] (partner 0.1 µM) gave a relative viability (COR-L 105; first compound 0.01 µM) of 0.375, a relative viability (COR-L 105; first compound 0.03162 µM) of 0.447 and a relative viability (COR-L 105; first compound 0.3162 µM) of 0.365. The relative viability (COR-L23; first compound 0.01 µM) was 0.135, the relative viability (COR-L23; first compound 0.03162 µM) was 0.231 and the relative viability (COR-L23; first compound 0.3162 µM) was 0.205. The relative viability (EKVX; first compound 0.01 µM) was 0.471, the relative viability (EKVX; first compound 0.03162 µM) was 0.458 and the relative viability (EKVX; first compound 0.3162 µM) was 0.407. It also gave a relative viability (HARA; first compound 0.03162 µM) of 0.0837, a relative viability (HARA; first compound 0.3162 µM) of 0.11 and a relative viability (HOP-62; first compound 0.01 µM) of 0.352. It also gave a relative viability (HOP-62; first compound 0.03162 µM) of 0.424, a relative viability (HOP-62; first compound 0.3162 µM) of 0.37 and a relative viability (NCI-H1355; first compound 0.01 µM) of 0.507. The relative viability (NCI-H1355; first compound 0.03162 µM) was 0.609, the relative viability (NCI-H1355; first compound 0.3162 µM) was 0.597 and the relative viability (NCI-H1395; first compound 0.03162 µM) was 0.812. It also gave a relative viability (NCI-H1395; first compound 0.3162 µM) of 0.815, a relative viability (NCI-H1734; first compound 0.01 µM) of 0.252 and a relative viability (NCI-H1734; first compound 0.03162 µM) of 0.289. For the same molecule, the relative viability (NCI-H1734; first compound 0.3162 µM) was 0.276, the relative viability (NCI-H1755; first compound 0.01 µM) was 0.556 and the relative viability (NCI-H1755; first compound 0.03162 µM) was 0.613. It also gave a relative viability (NCI-H1755; first compound 0.3162 µM) of 0.664, a relative viability (NCI-H1793; first compound 0.01 µM) of 0.317 and a relative viability (NCI-H1793; first compound 0.03162 µM) of 0.373. It also gave a relative viability (NCI-H1793; first compound 0.3162 µM) of 0.339, a relative viability (NCI-H1993; first compound 0.01 µM) of 0.593 and a relative viability (NCI-H1993; first compound 0.03162 µM) of 0.604. For the same molecule, the relative viability (NCI-H1993; first compound 0.3162 µM) was 0.548, the relative viability (NCI-H2009; first compound 0.01 µM) was 0.755 and the relative viability (NCI-H2009; first compound 0.03162 µM) was 0.912. For the same molecule, the relative viability (NCI-H2009; first compound 0.3162 µM) was 0.91, the relative viability (NCI-H2170; first compound 0.01 µM) was 0.836 and the relative viability (NCI-H2170; first compound 0.03162 µM) was 0.752. For the same molecule, the relative viability (NCI-H2170; first compound 0.3162 µM) was 0.831, the relative viability (NCI-H2228; first compound 0.01 µM) was 0.219 and the relative viability (NCI-H2228; first compound 0.03162 µM) was 0.247. It also gave a relative viability (NCI-H2228; first compound 0.3162 µM) of 0.265, a relative viability (NCI-H2342; first compound 0.01 µM) of 0.482 and a relative viability (NCI-H2342; first compound 0.03162 µM) of 0.483. For the same molecule, the relative viability (NCI-H2342; first compound 0.3162 µM) was 0.455, the relative viability (NCI-H2347; first compound 0.01 µM) was 0.645 and the relative viability (NCI-H2347; first compound 0.03162 µM) was 0.609. For the same molecule, the relative viability (NCI-H2347; first compound 0.3162 µM) was 0.604, the relative viability (NCI-H322M; first compound 0.03162 µM) was 0.501 and the relative viability (NCI-H322M; first compound 0.3162 µM) was 0.434. It also gave a relative viability (NCI-H358; first compound 0.01 µM) of 0.101, a relative viability (NCI-H358; first compound 0.03162 µM) of 0.114 and a relative viability (NCI-H358; first compound 0.3162 µM) of 0.107. For the same molecule, the relative viability (NCI-H522; first compound 0.01 µM) was 0.519, the relative viability (NCI-H522; first compound 0.03162 µM) was 0.567 and the relative viability (NCI-H522; first compound 0.3162 µM) was 0.65. It also gave a relative viability (NCI-H647; first compound 0.01 µM) of 0.146, a relative viability (NCI-H647; first compound 0.03162 µM) of 0.449 and a relative viability (NCI-H647; first compound 0.3162 µM) of 0.261. The relative viability (NCI-H838; first compound 0.01 µM) was 0.267, the relative viability (NCI-H838; first compound 0.03162 µM) was 0.301 and the relative viability (NCI-H838; first compound 0.3162 µM) was 0.274. For the same molecule, the relative viability (PC-14; first compound 0.01 µM) was 0.428, the relative viability (PC-14; first compound 0.03162 µM) was 0.656 and the relative viability (PC-14; first compound 0.3162 µM) was 0.696. It also gave a relative viability (SK-MES-1; first compound 0.03162 µM) of 1.1, a relative viability (SK-MES-1; first compound 0.3162 µM) of 0.942 and a relative viability (UMC-11; first compound 0.01 µM) of 0.181. For the same molecule, the relative viability (UMC-11; first compound 0.03162 µM) was 0.197 and the relative viability (UMC-11; first compound 0.3162 µM) was 0.19.
